In US8685974B2 (Bayer CropScience AG, priority 2009, dated 2014):
Where “and” joins values, the source holds several entries; their conditions need not be identical. Equal entries are not always repeated. Where two headings read alike, the source gives them in different places. Marks after values point to notes of the source that are not given here.

Legend:
Peronospora parasitica = assay: In vivo test on Peronospora parasitica (crucifer downy mildew); settings: dose of 500 ppm; cabbage plants; grading 5 days after contamination
Procedure: In Vivo Test on Peronospora parasitica (Crucifer Downy Mildew)
The active ingredients tested are prepared by homogenization in a mixture of acetone/Tween/DMSO, then diluted with water to obtain the desired active material concentration.
Cabbage plants (Eminence variety) in starter cups, sown on a 50/50 peat soil-pozzolana substrate and grown at 18-20° C., are treated at the cotyledon stage by spraying with the aqueous suspension described above.
(§1) Plants, used as controls, are treated with an aqueous solution not containing the active material.
After 24 hours, the plants are contaminated by spraying them with an aqueous suspension of Peronospora parasitica spores (50 000 spores per ml). The spores are collected from infected plant.
The contaminated cabbage plants are incubated for 5 days at 20° C., under a humid atmosphere.
Grading is carried out 5 days after the contamination, in comparison with the control plants.

Sphaerotheca fuliginea = assay: In vivo test on Sphaerotheca fuliginea (cucurbits powdery mildew); settings: dose of 500 ppm; gherkin plants; grading 12 days after contamination
Procedure: In Vivo Test on Sphaerotheca fuliginea (Cucurbits Powdery Mildew)
(§2) The active ingredients tested are prepared by homogenization in a mixture of acetone/tween/DMSO, then diluted with water to obtain the desired active material.
Gherkin plants (Vert petit de Paris variety) in starter cups, sown on a 50/50 peat soil-pozzolana substrate and grown at 20° C./23° C., are treated at the cotyledon Z10 stage by spraying with the aqueous suspension described above. Plants, used as controls, are treated with an aqueous solution not containing the active material.
After 24 hours, the plants are contaminated by spraying them with an aqueous suspension of Sphaerotheca fuliginea spores (100 000 spores per ml). The spores are collected from a contaminated plants. The contaminated gherkin plants are incubated at about 20° C./25° C. and at 60/70% relative humidity.
Grading (% of efficacy) is carried out 12 days after the contamination, in comparison with the control plants.

[1] = for logP value of the minor isomer (in parenthesis in column Isomer ratio [d]): main value of the example measured by method [b]
Pyrenophora teres = assay: In vivo test on Pyrenophora teres (barley net blotch); settings: dose of 500 ppm; barley plants; grading 12 days after contamination
Outline: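 Scoring is done 12 days after spore spraying (12,000 spores/ml, from 12-day-old culture), relative to water-treated controls. Inoculation follows by 24 h a preventive spray of the aqueous-diluted formulation onto 1-leaf Plaisant barley raised at 12° C.; infection holds 24 h at about 20° C./100% RH, then 12 days at 80% RH.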

Puccinia recondita = assay: In vivo test on Puccinia recondita (brown rust); settings: dose of 500 ppm; wheat plants; grading 10 days after contamination
Procedure: In Vivo Test on Puccinia recondita (Brown Rust)
as §2
Wheat plants (Scipion variety) sown on 50/50 peat soil-pozzolana substrate in starter cups and grown at 12° C., are treated at the 1-leaf stage (10 cm tall) by spraying with the aqueous suspension described above.
as §1
After 24 hours, the plants are contaminated by spraying the leaves with an aqueous suspension of Puccinia recondita spores (100,000 spores per ml). The spores are collected from a 10-day-old contaminated wheat and are suspended in water containing 2.5 ml/l of tween 80 10%. The contaminated wheat plants are incubated for 24 hours at 20° C. and at 100% relative humidity, and then for 10 days at 20° C. and at 70% relative humidity.
Grading is carried out 10 days after the contamination, in comparison with the control plants.

Alternaria solani = assay: Alternaria test (tomato) / protective; type: in vivo; settings: 500 ppm active compound, protective spray, evaluated 7 days after inoculation
Outline: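 Efficacy scored 7 days after inoculation, where 100% means no infection and 0% matches the untreated control. Test plants were young tomatoes given a protective spray at the stated rate, compound dissolved in DMF plus emulsifier and diluted with water. Incubation at 20° C, 96% relative humidity.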

Fusarium graminearum = type: cell-based; settings: 50 μM; for % Inhibition of DON/AcDON at 50 μM: 7 days at 28° C.
[2] = logP by HPLC at pH 2.3 (0.1% phosphoric acid / acetonitrile); type: physicochemical; settings: method [a]: pH 2.3 with 0.1% phosphoric acid and acetonitrile as eluent
[3] = tested on: Mycosphaerella graminicola; assay: In vivo test on Mycosphaerella graminicola (wheat leaf spot); settings: dose of 500 ppm; wheat plants; grading 21 to 28 days after contamination
Procedure: In Vivo Test on Mycosphaerella graminicola (Wheat Leaf Spot)
The active ingredients tested are prepared by homogenization in a mixture of acetone/tween/DMSO, then diluted with water to obtain the desired active material concentration.
Wheat plants (Scipion variety), sown on a 50/50 peat soil-pozzolana substrate in starter cups and grown at 12° C., are treated at the 1-leaf stage (10 cm tall) by spraying with the aqueous suspension described above. Plants, used as controls, are treated with an aqueous solution not containing the active material.
After 24 hours, the plants are contaminated by spraying them with an aqueous suspension of Mycosphaerella graminicola spores (500 000 spores per ml). The spores are collected from a 7-day-old culture. The contaminated wheat plants are incubated for 72 hours at 18° C. and at 100% relative humidity, and then for 21 to 28 days at 90% relative humidity.
Grading (% of efficacy) is carried out 21 to 28 days after the contamination, in comparison with the control plants.

Fusarium proliferatum = assay: Production of fumonisin FB1 by Fusarium proliferatum (microtiter plate, HPLC-MS/MS and OD620); type: cell-based; settings: for % inhibition FB1 production at 50 μM: 5 days at 20° C., HPLC-MS/MS; for % inhibition fungal growth at 50 μM: Fusarium proliferatum, OD620 at start and after 5 days
Botrytis cinerea = assay: In vivo test on Botrytis cinerea (grey mould); settings: dose of 500 ppm; gherkin plants; grading 5/7 days after contamination
Procedure: In Vivo Test on Botrytis cinerea (Grey Mould)
The active ingredients tested are prepared by homogenization in a mixture of acetone/Tween/DMSO, then diluted with water to obtain the desired active material
Gherkin plants (Vert petit de Paris variety), sown on a 50/50 peat soil-pozzolana substrate in starter cups and grown at 18-20° C., are treated at the cotyledon Z11 stage by spraying with the active ingredient prepared as described above.
as §1
After 24 hours, the plants are contaminated by depositing drops of an aqueous suspension of Botrytis cinerea spores (150,000 spores per ml) on upper surface of the leaves. The spores are collected from a 15-day-old culture and are suspended in a nutrient solution composed of: • 20 g/L of gelatine; • 50 g/L of D-fructose; • 2 g/L of NH4NO3; • 1 g/L of KH2PO4.
The contaminated cucumber plants are settled for 5/7 days in a climatic room at 15-11° C. (day/night) and at 80% relative humidity.
Grading is carried out 5/7 days after the contamination, in comparison with the control plants.

Leptosphaeria nodorum = Leptosphaeria nodorum test (wheat) / protective; type: in vivo; settings: 500 ppm active compound, protective spray, evaluated 7-9 days after inoculation
Outline: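 Young wheat plants sprayed protectively with compound in DMF/alkylaryl polyglycol ether emulsion diluted in water, then kept in greenhouse at 90% rel. humidity, 22° C. Scored 7-9 days after inoculation as % efficacy, 0% equal to untreated control and 100% no infection.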

Compound: Clc1ccc(-c2nn(CCN3CCOCC3)cc2-c2ccncc2)s1 [Example 60]
- protection (Peronospora parasitica): 98%
- protection (% of efficacy) (Sphaerotheca fuliginea): 75%
- log p ([1]; pH 2.7): 0.52^[b]

Compound: Clc1ccc(-c2nn(C3CC3)cc2-c2ccncc2)s1 [Example 66]
- protection (% of efficacy) (Sphaerotheca fuliginea): 95%
- protection (Pyrenophora teres): 92%
- protection (Puccinia recondita): 89% and 95%
- log p ([1]; pH 2.7): 1.62^[b]

Compound: CC(=O)Nc1cc(-c2cn(CC(C)C)nc2-c2ccc(Cl)s2)ccn1 [Example 358]
- efficacy (Alternaria solani): 100%
- protection (Pyrenophora teres): 80%
- % Inhibition of fungal growth at 50 μM (Fusarium graminearum): 102%
- % Inhibition of DON/AcDON at 50 μM (Fusarium graminearum): 100%
- log p [2]: 2.96^[a]

Compound: CC(C)Cn1cc(-c2ccnc(NC(=O)c3cccs3)c2)c(-c2ccc(Cl)s2)n1 [Example 320]
- log p [2]: 4.62^[a]

Compound: Clc1ccc(-c2n[nH]cc2-c2ccncn2)s1 [Example 3]
- protection (% of efficacy) [3]: 86%
- % inhibition FB1 production at 50 μM (Fusarium proliferatum): 99%
- % inhibition fungal growth at 50 μM (Fusarium proliferatum): 46%
- log p ([1]; pH 2.3): 1.82^[a];
- log p ([1]; pH 2.7): 1.74^[b]

Compound: CCOC(=O)Cn1cc(-c2ccncc2)c(-c2ccc(Cl)s2)n1 [Example 63]
- protection (Peronospora parasitica): 94%
- protection (% of efficacy) (Sphaerotheca fuliginea): 88%
- log p ([1]; pH 2.7): 1.67^[b]

Compound: CC(C)CCn1cc(-c2ccncc2)c(-c2ccc(Cl)s2)n1 [Example 17]
- protection (Pyrenophora teres): 100%
- protection (Puccinia recondita): 70%
- protection (% of efficacy) [3]: 70%
- log p ([1]; pH 2.7): 2.45^[b]

Compound: CC(C)Cn1cc(-c2ccnc(NC(=O)C3CCC3)c2)c(-c2ccc(Cl)s2)n1 [Example 361]
- efficacy (Alternaria solani): 94%
- log p [2]: 3.96^[a]

Compound: CC(C)Nc1nccc(-c2c[nH]nc2-c2ccc(Cl)s2)n1 [Example 312]
- % Inhibition of fungal growth at 50 μM (Fusarium graminearum): 87%
- % Inhibition of DON/AcDON at 50 μM (Fusarium graminearum): 99%
- log p [2]: 1.79^[a]

Compound: CC(C)C(C)n1ncc(-c2ccncc2)c1-c1ccc(Cl)s1 (stereo not drawn) [Example 20]
- protection (Peronospora parasitica): at least 70%
- log p ([1]; pH 2.7): 2.1^[b]

Compound: CCn1cc(-c2ccnc(N=C(c3ccccc3)c3ccccc3)c2)c(-c2ccc(Cl)s2)n1 [Example 311]
- efficacy (Alternaria solani): 70%
- log p [2]: 3.99^[a]

Compound: COCC(=O)Nc1cc(-c2cn(CC(C)C)nc2-c2ccc(Cl)s2)ccn1 [Example 360]
- efficacy (Alternaria solani): 78%
- % Inhibition of fungal growth at 50 μM (Fusarium graminearum): 12%
- % Inhibition of DON/AcDON at 50 μM (Fusarium graminearum): 100%
- log p [2]: 3.78^[a]

Compound: Clc1ccc(-c2nn(C3CCC3)cc2-c2ccncc2)s1 [Example 18]
- protection (Botrytis cinerea): 100%
- protection (% of efficacy) (Sphaerotheca fuliginea): 83%
- protection (Pyrenophora teres): 100%
- protection (Puccinia recondita): 89%
- log p ([1]; pH 2.7): 2.04^[b]

Compound: CC(=O)n1cc(-c2ccncc2)c(-c2ccc(Cl)s2)n1 [Example 86]
- protection (Peronospora parasitica): 92%
- protection (Puccinia recondita): 75%
- log p ([1]; pH 2.7): 2.04^[b]

Compound: Clc1ccc(-c2nn(C3CCCC3)cc2-c2ccncc2)s1 [Example 15]
- protection (Botrytis cinerea): 100%
- protection (% of efficacy) (Sphaerotheca fuliginea): 92%
- protection (Pyrenophora teres): 89%
- log p ([1]; pH 2.7): 2.25^[b]

Compound: Clc1ccc(-c2n[nH]cc2-c2ccncc2)s1 [Example 1]
- protection (Pyrenophora teres): 90%
- protection (% of efficacy) [3]: 75%
- % inhibition FB1 production at 50 μM (Fusarium proliferatum): 82%
- % inhibition fungal growth at 50 μM (Fusarium proliferatum): 41%
- log p ([1]; pH 2.7): 0.96^[b]

Compound: Clc1ccc(-c2nn(C3CCCCO3)cc2-c2ccncc2)s1 (stereo not drawn) [Example 45]
- protection (% of efficacy) [3]: 71%
- log p ([1]; pH 2.7): 1.91^[b]

Compound: CC(C)Cn1cc(-c2ccnc(NS(C)(=O)=O)c2)c(-c2ccc(Cl)s2)n1 [Example 362]
- log p [2]: 3.04^[a]

Compound: CC(C)Cn1cc(-c2ccnc(NC(=O)OC(C)C)c2)c(-c2ccc(Cl)s2)n1 [Example 319]
- log p [2]: 5.15^[a]

Compound: FCCn1cc(-c2ccncc2)c(-c2ccc(Cl)s2)n1 [Example 62]
- protection (Peronospora parasitica): 89%
- protection (Botrytis cinerea): 98%
- protection (% of efficacy) (Sphaerotheca fuliginea): 94%
- protection (Puccinia recondita): 88%
- logP value of the minor isomer (in parenthesis in column Isomer ratio [d]) ([1]; pH 2.7): (1.25)
- log p ([1]; pH 2.7): 1.39^[b]

Compound: CCNC(=O)Nc1cc(-c2cn(CC(C)C)nc2-c2ccc(Cl)s2)ccn1 [Example 321]
- % Inhibition of fungal growth at 50 μM (Fusarium graminearum): 39%
- % Inhibition of DON/AcDON at 50 μM (Fusarium graminearum): 92%
- log p [2]: 3.18^[a]

Compound: CC(C)Cn1cc(-c2ccnc(NC(=O)C3CC3)c2)c(-c2ccc(Cl)s2)n1 [Example 359]
- efficacy (Alternaria solani): 94%
- efficacy (Leptosphaeria nodorum): 90%
- protection (Pyrenophora teres): 70%
- % Inhibition of fungal growth at 50 μM (Fusarium graminearum): 62%
- % Inhibition of DON/AcDON at 50 μM (Fusarium graminearum): 100%
- log p [2]: 3.48^[a]

Compound: ClCCn1cc(-c2ccncc2)c(-c2ccc(Cl)s2)n1 [Example 55]
- protection (Botrytis cinerea): 75%
- protection (Pyrenophora teres): 80%
- logP value of the minor isomer (in parenthesis in column Isomer ratio [d]) ([1]; pH 2.7): (1.50)
- log p ([1]; pH 2.7): 1.65^[b]
